According to US20150183802A1, “TRICYCLIC SULFONAMIDE DERIVATIVES” (NOVARTIS AG, priority 2013, published 2015):

What follows are molecules tested against T1, hNav1.7 channels (Homo sapiens, UniProt Q15858) (assay: hNav1.7 channel in vitro patch-clamp assay). Conditions: stable HEK293 cell line expressing hNav1.7; whole cell patch-clamp (QPatch HTX and/or conventional), room temperature; voltage protocol not given.
T1 construct: host or cells: HEK293
Type: cell-based
Procedure: hNav1.7 Channel In Vitro Patch-Clamp Assay
Cells: Sable HEK293 (human embryonic kidney) cell line expressing hNav1.7 channels was used in the assay. The cell line was obtained from Millipore (Millipore Corporation, MA).
Patch-clamp recordings: The recordings were performed on QPatch HTX (Sophion Bioscience, Denmark) and/or conventional patch-clamp (Axon Multiclamp 700B systems, Molecular Devices, CA) platforms at room temperature, using whole cell patch-clamp techniques. The composition of extracellular solution was (in mM): HEPES 5, NaCl 40, KCl 3, CaCl2 1, MgCl2 1, Choline Chloride 100. Adjust pH to 7.2 with 1N NaOH, osmolarity to 300-310 mOsm with sucrose. The composition of intracellular solution was (in mM): HEPES 10, NaCl 10, Na2ATP 1, MgCl2 2, KF 135, EGTA 10. Adjust pH to 7.2 with 1N NaOH, osmolarity to 290-300 mOsm with sucrose.
For conventional patch-clamp, 35 mm culture dishes containing hNav1.7 cells were placed on the stage of an inverted microscope and continuously perfused with extracellular solution from a perfusion system (Biologic Rapid solution changer, RSC-160, ˜1 ml/min). […] The recordings were controlled by pCLAMP10 software. Test compounds were dissolved in 100% DMSO to make stock solutions for each test concentration, and then diluted into extracellular solution to achieve final concentration for testing. Final DMSO concentration was less than 0.3%. Two voltage protocols were used in hNav1.7 assay: for non-inactivated protocol, the sodium currents were elicited by a 2 ms pulse to −10 mV from a holding potential of −110 mV. For inactivated protocol, the holding potential was set at V1/2. The voltage was firstly stepped to −110 mV for 50 ms, then to −10 mV for 2 ms and then stepped back to holding potential. In both protocols the voltage command was given in every 10 s. Compound effect (% inhibition) was determined by difference in current amplitude before and after the application of test compounds. IC50 values were determined from concentration-response curves that were obtained with Hill fitting.
For QPatch HTX assay, hNav1.7 cells grown to 50%-80% confluence were rinsed with DPBS and dissociated with Tryple (Invitrogen, 12605-010). The dissociated cells were then mixed with extracellular solution. After centrifuge, the cells were resuspended in extracellular solution and used in the QPatch experiment. The whole-cell protocols, voltage protocols and application protocols were established with QPatch Assay Software 3.4 (Sophion Bioscience, Denmark). Only the inactivated protocol was used in the QPatch assay.

T1 sequence (Q15858 whole entry): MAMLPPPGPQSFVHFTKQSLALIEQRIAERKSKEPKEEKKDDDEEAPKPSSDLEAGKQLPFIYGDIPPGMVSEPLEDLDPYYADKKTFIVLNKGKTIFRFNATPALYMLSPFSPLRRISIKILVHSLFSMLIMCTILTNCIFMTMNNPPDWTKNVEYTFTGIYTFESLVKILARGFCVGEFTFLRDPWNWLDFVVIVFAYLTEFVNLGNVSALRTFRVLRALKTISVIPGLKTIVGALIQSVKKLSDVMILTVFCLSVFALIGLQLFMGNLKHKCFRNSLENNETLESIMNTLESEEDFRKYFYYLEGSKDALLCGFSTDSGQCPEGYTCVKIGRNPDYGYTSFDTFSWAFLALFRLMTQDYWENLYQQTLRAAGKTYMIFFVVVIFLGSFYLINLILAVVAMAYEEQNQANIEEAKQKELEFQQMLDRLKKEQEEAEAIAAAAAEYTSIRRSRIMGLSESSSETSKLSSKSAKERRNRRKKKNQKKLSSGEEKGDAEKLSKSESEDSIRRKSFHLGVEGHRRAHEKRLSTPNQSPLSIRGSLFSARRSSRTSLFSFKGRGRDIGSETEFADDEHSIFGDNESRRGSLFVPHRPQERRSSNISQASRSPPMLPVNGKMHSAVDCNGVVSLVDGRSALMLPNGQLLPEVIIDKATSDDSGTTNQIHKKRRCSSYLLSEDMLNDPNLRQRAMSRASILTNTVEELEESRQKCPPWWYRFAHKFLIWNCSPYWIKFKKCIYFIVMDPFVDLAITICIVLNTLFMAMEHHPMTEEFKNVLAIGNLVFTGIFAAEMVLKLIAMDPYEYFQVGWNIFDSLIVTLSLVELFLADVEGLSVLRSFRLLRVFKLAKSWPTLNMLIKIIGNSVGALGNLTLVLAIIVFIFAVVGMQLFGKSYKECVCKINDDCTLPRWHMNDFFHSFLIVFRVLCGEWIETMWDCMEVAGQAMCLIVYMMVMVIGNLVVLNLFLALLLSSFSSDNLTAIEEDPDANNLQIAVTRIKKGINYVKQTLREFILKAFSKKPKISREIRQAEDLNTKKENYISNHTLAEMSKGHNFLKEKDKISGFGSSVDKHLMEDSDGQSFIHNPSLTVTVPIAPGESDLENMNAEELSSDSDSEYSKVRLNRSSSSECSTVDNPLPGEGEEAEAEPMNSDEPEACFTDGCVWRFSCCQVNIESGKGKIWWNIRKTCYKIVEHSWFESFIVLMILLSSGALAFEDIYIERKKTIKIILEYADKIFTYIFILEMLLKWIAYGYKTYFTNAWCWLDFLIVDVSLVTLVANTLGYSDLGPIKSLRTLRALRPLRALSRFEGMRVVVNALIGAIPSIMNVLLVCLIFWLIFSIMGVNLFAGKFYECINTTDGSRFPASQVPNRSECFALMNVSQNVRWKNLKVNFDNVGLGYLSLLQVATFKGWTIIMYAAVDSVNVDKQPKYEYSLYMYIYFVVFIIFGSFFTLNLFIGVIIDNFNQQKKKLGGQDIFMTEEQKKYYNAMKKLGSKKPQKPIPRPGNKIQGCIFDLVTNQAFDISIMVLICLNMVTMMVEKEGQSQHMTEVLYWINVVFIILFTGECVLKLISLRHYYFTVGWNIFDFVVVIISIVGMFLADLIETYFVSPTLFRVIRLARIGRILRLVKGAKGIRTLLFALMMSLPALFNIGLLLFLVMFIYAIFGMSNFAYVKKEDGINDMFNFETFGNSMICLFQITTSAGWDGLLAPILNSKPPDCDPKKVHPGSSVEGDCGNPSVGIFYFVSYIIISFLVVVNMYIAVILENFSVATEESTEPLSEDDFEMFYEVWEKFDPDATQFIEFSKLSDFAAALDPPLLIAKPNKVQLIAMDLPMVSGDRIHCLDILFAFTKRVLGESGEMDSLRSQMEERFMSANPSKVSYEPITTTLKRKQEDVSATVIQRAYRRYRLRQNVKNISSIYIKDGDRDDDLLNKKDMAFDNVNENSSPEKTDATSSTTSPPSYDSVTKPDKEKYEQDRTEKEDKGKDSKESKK

SMILES	IC50 [nM]
CCC(C)Oc1ncc(N2C(=O)C3(CC3)c3cc4c(NS(=O)(=O)C5CC5)noc4cc32)cc1Cl (stereo not shown) [Example 24, N-(7′-(6-(sec-butoxy)-5-chloropyridin-3-yl)-6′-oxo-6′,7′-dihydrospiro[cyclopropane-1,5′-isoxazolo[4,5-f]indol]-3′-yl)cyclopropanesulfonamide]	70
O=C1N(c2cnc(OCC3CCC3)c(Cl)c2)c2cc3onc(NS(=O)(=O)C4CC4)c3cc2C12CC2 [Example 25, N-(7′-(5-chloro-6-(cyclobutylmethoxy)pyridin-3-yl)-6′-oxo-6′,7′-dihydrospiro[cyclopropane-1,5′-isoxazolo[4,5-f]indol]-3′-yl)cyclopropanesulfonamide]	80
O=C1N(c2cnc(OC3CCCCC3)c(Cl)c2)c2cc3onc(NS(=O)(=O)C4CC4)c3cc2C12CC2 [Example 26, N-(7′-(5-chloro-6-(cyclohexyloxy)pyridin-3-yl)-6′-oxo-6′,7′-dihydrospiro[cyclopropane-1,5′-isoxazolo[4,5-f]indol]-3′-yl)cyclopropanesulfonamide]	110
O=C1N(c2cnc(OCC3CCCC3)c(Cl)c2)c2cc3onc(NS(=O)(=O)C4CC4)c3cc2C12CC2 [Example 27, N-(7′-(5-chloro-6-(cyclopentylmethoxy)pyridin-3-yl)-6′-oxo-6′,7′-dihydrospiro[cyclopropane-1,5′-isoxazolo[4,5-f]indol]-3′-yl)cyclopropanesulfonamide]	90
O=C1N(c2cnc(OCC3CC3)c(Cl)c2)c2cc3onc(NS(=O)(=O)C4CC4)c3cc2C12CC2 [Example 28, N-(7′-(5-chloro-6-(cyclopropylmethoxy)pyridin-3-yl)-6′-oxo-6′,7′-dihydrospiro[cyclopropane-1,5′-isoxazolo[4,5-f]indol]-3′-yl)cyclopropanesulfonamide]	200
COc1ncc(N2C(=O)C3(CC3)c3cc4c(NS(=O)(=O)C5CC5)noc4cc32)cc1Cl [Example 29, N-(7′-(5-chloro-6-methoxypyridin-3-yl)-6′-oxo-6′,7′-dihydrospiro[cyclopropane-1,5′-isoxazolo[4,5-f]indol]-3′-yl)cyclopropanesulfonamide]	800
O=C1N(c2cnc(OC(F)F)c(Cl)c2)c2cc3onc(NS(=O)(=O)C4CC4)c3cc2C12CC2 [Example 30, N-(7′-(5-chloro-6-(difluoromethoxy)pyridin-3-yl)-6′-oxo-6′,7′-dihydrospiro[cyclopropane-1,5′-isoxazolo[4,5-f]indol]-3′-yl)cyclopropanesulfonamide]	630
CS(=O)(=O)Nc1noc2cc3c(cc12)C1(CC1)C(=O)N3c1ccc(Cl)c(Cl)c1 [Example 31, N-(7′-(3,4-dichlorophenyl)-6′-oxo-6′,7′-dihydrospiro[cyclopropane-1,5′-isoxazolo[4,5-f]indol]-3′-yl)methanesulfonamide]	800
CC(C)COc1c(Cl)cc(N2C(=O)C3(CC3)c3cc4c(NS(C)(=O)=O)noc4cc32)cc1C#N [Example 32, N-(7′-(3-chloro-5-cyano-4-isobutoxyphenyl)-6′-oxo-6′,7′-dihydrospiro[cyclopropane-1,5′-isoxazolo[4,5-f]indol]-3′-yl)methanesulfonamide]	900
CC(C)COc1c(F)cc(N2C(=O)C3(CC3)c3cc4c(NS(=O)(=O)C5CC5)noc4cc32)cc1Cl [Example 33, N-(7′-(3-chloro-5-fluoro-4-isobutoxyphenyl)-6′-oxo-6′,7′-dihydrospiro[cyclopropane-1,5′-isoxazolo[4,5-f]indol]-3′-yl)cyclopropanesulfonamide]	100
CC(C)COc1ncc(-n2c(=O)n(C)c3cc4c(NS(C)(=O)=O)noc4cc32)cc1Cl [Example 34, N-(7-(5-chloro-6-isobutoxypyridin-3-yl)-5-methyl-6-oxo-6,7-dihydro-5H-imidazo[4′,5′:4,5]benzo[1,2-d]isoxazol-3-yl)methanesulfonamide]	100
CC(C)COc1ncc(-n2c(=O)n(C)c3cc4c(NS(=O)(=O)C5CC5)noc4cc32)cc1Cl [Example 35, N-(7-(5-chloro-6-isobutoxypyridin-3-yl)-5-methyl-6-oxo-6,7-dihydro-5H-imidazo[4′,5′:4,5]benzo[1,2-d]isoxazol-3-yl)cyclopropanesulfonamide]	100
CC(C)COc1ncc(N2C(=O)C(C)(C)c3cc4c(NS(=O)(=O)C5CC5)noc4cc32)cc1Cl [Example 36, N-(7-(5-chloro-6-isobutoxypyridin-3-yl)-5,5-dimethyl-6-oxo-6,7-dihydro-5H-isoxazolo[4,5-f]indol-3-yl)cyclopropanesulfonamide]	70
CC(C)COc1ncc(N2C(=O)C3(CCC3)c3cc4c(NS(=O)(=O)C5CC5)noc4cc32)cc1Cl [Example 37, N-(7′-(5-chloro-6-isobutoxypyridin-3-yl)-6′-oxo-6′,7′-dihydrospiro[cyclobutane-1,5′-isoxazolo[4,5-f]indol]-3′-yl)cyclopropanesulfonamide]	40
CC(C)COc1ncc(N2C(=O)C3(CCCC3)c3cc4c(NS(=O)(=O)C5CC5)noc4cc32)cc1Cl [Example 38, N-(7′-(5-chloro-6-isobutoxypyridin-3-yl)-6′-oxo-6′,7′-dihydrospiro[cyclopentane-1,5′-isoxazolo[4,5-f]indol]-3′-yl)cyclopropanesulfonamide]	500
CC(C)COc1ncc(N2C(=O)C3(CCCCC3)c3cc4c(NS(=O)(=O)C5CC5)noc4cc32)cc1Cl [Example 39, N-(7′-(5-chloro-6-isobutoxypyridin-3-yl)-6′-oxo-6′,7′-dihydrospiro[cyclohexane-1,5′-isoxazolo[4,5-f]indol]-3′-yl)cyclopropanesulfonamide]	700
CC(C)COc1ncc(-n2c(C(F)(F)F)cc3cc4c(NS(C)(=O)=O)noc4cc32)cc1Cl [Example 40b, N-(7-(5-chloro-6-isobutoxypyridin-3-yl)-6-(trifluoromethyl)-7H-isoxazolo[4,5-f]indol-3-yl)methanesulfonamide]	40
CC(C)COc1ncc(-n2cc(C(F)(F)F)c3cc4c(NS(=O)(=O)C5CC5)noc4cc32)cc1Cl [Example 41, N-(7-(5-chloro-6-isobutoxypyridin-3-yl)-5-(trifluoromethyl)-7H-isoxazolo[4,5-f]indol-3-yl)cyclopropanesulfonamide]	50
Cc1cn(-c2cnc(OCC(C)C)c(Cl)c2)c2cc3onc(NS(=O)(=O)C4CC4)c3cc12 [Example 42, N-(7-(5-chloro-6-isobutoxypyridin-3-yl)-5-methyl-7H-isoxazolo[4,54]indol-3-yl)cyclopropanesulfonamide]	70
CC(C)COc1ncc(-n2c(C(F)(F)F)nc3cc4c(NS(=O)(=O)C5CC5)noc4cc32)cc1Cl [Example 43, N-(7-(5-chloro-6-isobutoxypyridin-3-yl)-6-(trifluoromethyl)-7H-imidazo[4′,5′:4,5]benzo[1,2-d]isoxazol-3-yl)cyclopropanesulfonamide]	100
Cc1nn(-c2cnc(OCC(C)C)c(Cl)c2)c2cc3onc(NS(C)(=O)=O)c3cc12 [Example 44, N-(7-(5-chloro-6-isobutoxypyridin-3-yl)-5-methyl-7H-isoxazolo[4,54]indazol-3-yl)methanesulfonamide]	100
Cc1nn(-c2cnc(OCC(C)C)c(Cl)c2)c2cc3onc(NS(=O)(=O)C4CC4)c3cc12 [Example 45, N-(7-(5-chloro-6-isobutoxypyridin-3-yl)-5-methyl-7H-isoxazolo[4,5-f]indazol-3-yl)cyclopropanesulfonamide]	30
Cc1nn(-c2ccc(Cl)c(Cl)c2)c2cc3onc(NS(=O)(=O)C4CC4)c3cc12 [Example 46, N-(7-(3,4-dichlorophenyl)-5-methyl-7H-isoxazolo[4,5-f]indazol-3-yl)cyclopropanesulfonamide]	100
CC(C)COc1ncc(-c2nn(C)c3cc4c(NS(=O)(=O)C5CC5)noc4cc23)cc1Cl [Example 47, N-(7-(5-chloro-6-isobutoxypyridin-3-yl)-5-methyl-5H-isoxazolo[5,4-f]indazol-3-yl)cyclopropanesulfonamide]	400
CC(C)COc1ncc(-n2cc(C#N)c3cc4c(NS(=O)(=O)C5CC5)noc4cc32)cc1Cl [Example 48, N-(7-(5-chloro-6-isobutoxypyridin-3-yl)-5-cyano-7H-isoxazolo[4,54]indol-3-yl)cyclopropanesulfonamide]	220
